Laboratory results published in US20070082880A1 (priority 2005, published 2007).

What follows are molecules tested against T1, human PKCθ full length enzyme (Homo sapiens, UniProt Q04759) (assay: PKCθ IMAP Assay). Conditions: average value when one or more samples were tested; ATP 6 uM, PKCθ 1 nM.
T1 construct: human PKCθ full length enzyme (Panvera Catalog No. P2996); purchased Panvera P2996
T1 sequence (Q04759 whole entry): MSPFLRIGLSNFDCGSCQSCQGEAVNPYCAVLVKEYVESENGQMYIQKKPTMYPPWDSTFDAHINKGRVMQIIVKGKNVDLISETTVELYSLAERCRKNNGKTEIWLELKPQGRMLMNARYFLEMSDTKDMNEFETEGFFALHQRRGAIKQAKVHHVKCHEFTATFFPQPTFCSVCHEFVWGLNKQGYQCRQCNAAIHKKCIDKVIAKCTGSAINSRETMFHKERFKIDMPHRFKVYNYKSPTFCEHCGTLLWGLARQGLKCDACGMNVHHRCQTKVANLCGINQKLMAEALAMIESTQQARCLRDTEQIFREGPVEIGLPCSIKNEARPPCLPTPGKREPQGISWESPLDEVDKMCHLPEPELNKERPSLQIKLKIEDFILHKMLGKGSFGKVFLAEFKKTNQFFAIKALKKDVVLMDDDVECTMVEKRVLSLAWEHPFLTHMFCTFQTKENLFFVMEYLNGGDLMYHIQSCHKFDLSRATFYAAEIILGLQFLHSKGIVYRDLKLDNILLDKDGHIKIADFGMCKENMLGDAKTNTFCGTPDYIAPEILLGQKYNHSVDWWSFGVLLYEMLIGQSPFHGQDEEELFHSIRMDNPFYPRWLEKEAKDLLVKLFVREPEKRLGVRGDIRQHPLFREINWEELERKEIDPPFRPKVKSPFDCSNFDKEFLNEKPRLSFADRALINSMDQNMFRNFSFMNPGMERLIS
Assay type: biochemical
Experimental: The materials used include the following: human PKCθ full length enzyme (Panvera Catalog No. P2996); substrate peptide: 5FAM-[…]-OH (Molecular Devices, RP7032); ATP (Sigma Cat # A2383); DTT (Pierce, 20291); 5× kinase reaction buffer (Molecular Devices, R7209); 5× binding buffer A (Molecular Devices, R7282), 5× binding buffer B (Molecular Devices, R7209); IMAP Beads (Molecular Devices, R7284); and 384-well plates (Corning Costar, 3710).
The reaction buffer was prepared by diluting the 5× stock reaction buffer and adding DTT to obtain a concentration of 3.0 mM. The binding buffer was prepared by diluting the 5× binding buffer A. A master mix solution was prepared using a 90% dilution of the reaction buffer containing 2×ATP (12 uM) and 2× peptide ([…]). […] The final concentration of compound was 2× and 10% DMSO. DMSO was added to the rest of the master mix to increase the concentration to 10%. 10 ul of the master mix containing 10% DMSO was added to the rest of the wells on the plate except the 2nd column. 20 ul was transferred from the first column to the 2nd column. The compounds were serially diluted in 2:1 ratio starting from the 2nd column. A 2× (2 nM) PKCθ solution was made in the reaction buffer. 10 ul of the PKCθ solution was added to every well to achieve these final concentrations: PKCθ—1 nM; ATP—6 uM; peptide—100 nM; DMSO—5%. Samples were incubated for 25 minutes at room temperature. The binding reagent was prepared by diluting the beads in 1× binding buffer to 800:1. 50 ul of the binding reagent was added to every well and incubated for 20 minutes. FP was measured using Envision2100 (PerkinElmer Life Sciences). Wells with no ATPs and wells with no enzymes were used as controls.
Work on `CS(=O)(=O)c1cccc(-c2cc3c(Nc4ccc5[nH]ccc5c4)c(C#N)cnc3s2)c1` [Compound 239, 4-(1H-indol-5-ylamino)-2-[3-(methylsulfonyl)phenyl]thieno[2,3-b]pyridine-5-carbonitrile] yielded an IC50 of 1100 nM. `Cc1c(Nc2c(C#N)cnc3sc(-c4cccc(S(N)(=O)=O)c4)cc23)ccc2[nH]ccc12` [Compound 240, 3-{5-cyano-4-[(4-methyl-1H-indol-5-yl)amino]thieno[2,3-b]pyridin-2-yl}benzenesulfonamide] was tested, and the IC50 was 6 nM. For `Cc1c(Nc2c(C#N)cnc3sc(-c4ccc(S(N)(=O)=O)cc4)cc23)ccc2[nH]ccc12` [Compound 241, 4-{5-cyano-4-[(4-methyl-1H-indol-5-yl)amino]thieno[2,3-b]pyridin-2-yl}benzenesulfonamide], the IC50 was 13 nM. For `N#Cc1cnc2sc(-c3ccc(S(N)(=O)=O)cc3)cc2c1Nc1ccc2[nH]ccc2c1` [Compound 242, 4-[5-cyano-4-(1H-indol-5-ylamino)thieno[2,3-b]pyridin-2-yl]benzenesulfonamide], the IC50 was 380 nM. `COC(=O)c1cc2c(Nc3ccc4[nH]ccc4c3)c(C#N)cnc2s1` [Compound 246, methyl 5-cyano-4-(1H-indol-5-ylamino)thieno[2,3-b]pyridine-2-carboxylate] was tested, and the IC50 was 438 nM. `N#Cc1cnc2sc(C(=O)N3CCCC3)cc2c1Nc1ccc2[nH]ccc2c1` [Compound 250, 4-(1H-indol-5-ylamino)-2-(pyrrolidin-1-ylcarbonyl)thieno[2,3-b]pyridine-5-carbonitrile] showed an IC50 of 1040 nM. `N#Cc1cnc2sc(C(=O)Nc3cccnc3)cc2c1Nc1ccc2[nH]ccc2c1` [Compound 251, 5-cyano-4-(1H-indol-5-ylamino)-N-pyridin-3-ylthieno[2,3-b]pyridine-2-carboxamide] gave an IC50 of 1670 nM. Molecule `N#Cc1cnc2sc(C(=O)Nc3ccncc3)cc2c1Nc1ccc2[nH]ccc2c1` [Compound 252, 5-cyano-4-(1H-indol-5-ylamino)-N-pyridin-4-ylthieno[2,3-b]pyridine-2-carboxamide] has an IC50 of 959 nM. For `CN1CCN(C(=O)c2cc3c(Nc4ccc5[nH]ccc5c4)c(C#N)cnc3s2)CC1` [Compound 253, 4-(1H-indol-5-ylamino)-2-[(4-methylpiperazin-1-yl)carbonyl]thieno[2,3-b]pyridine-5-carbonitrile], the IC50 was 2280 nM. For `N#Cc1cnc2sc(C(=O)NCCO)cc2c1Nc1ccc2[nH]ccc2c1` [Compound 254, 5-cyano-N-(2-hydroxyethyl)-4-(1H-indol-5-ylamino)thieno[2,3-b]pyridine-2-carboxamide], the IC50 was 864 nM. `Cc1c(Nc2c(C#N)cnc3sc(C(=O)N4CCOCC4)cc23)ccc2[nH]ccc12` [Compound 255, 4-[(4-methyl-1H-indol-5-yl)amino]-2-(morpholin-4-ylcarbonyl)thieno[2,3-b]pyridine-5-carbonitrile] was tested, and the IC50 was 276 nM. `Cc1c(Nc2c(C#N)cnc3sc(C(=O)N4CCN(C)CC4)cc23)ccc2[nH]ccc12` [Compound 256, 4-[(4-methyl-1H-indol-5-yl)amino]-2-[(4-methylpiperazin-1-yl)carbonyl]thieno[2,3-b]pyridine-5-carbonitrile] gave an IC50 of 334 nM. Molecule `Cc1c(Nc2c(C#N)cnc3sc(C(=O)Nc4ccncc4)cc23)ccc2[nH]ccc12` [Compound 257, 5-cyano-4-[(4-methyl-1H-indol-5-yl)amino]-N-pyridin-4-ylthieno[2,3-b]pyridine-2-carboxamide] has an IC50 of 25 nM. `Cc1c(Nc2c(C#N)cnc3sc(C(=O)Nc4ccccc4)cc23)ccc2[nH]ccc12` [Compound 258, 5-cyano-4-[(4-methyl-1H-indol-5-yl)amino]-N-phenylthieno[2,3-b]pyridine-2-carboxamide] gave an IC50 of 126 nM. With `Cc1c(Nc2c(C#N)cnc3sc(C(=O)NCc4ccccc4)cc23)ccc2[nH]ccc12` [Compound 259, N-benzyl-5-cyano-4-[(4-methyl-1H-indol-5-yl)amino]thieno[2,3-b]pyridine-2-carboxamide] the IC50 was 155 nM. `Cc1c(Nc2c(C#N)cnc3sc(C(=O)NCCc4ccccc4)cc23)ccc2[nH]ccc12` [Compound 260, 5-cyano-4-[(4-methyl-1H-indol-5-yl)amino]-N-(2-phenylethyl)thieno[2,3-b]pyridine-2-carboxamide] gave an IC50 of 187 nM. For `Cc1c(Nc2c(C#N)cnc3sc(C(=O)N(C)C)cc23)ccc2[nH]ccc12` [Compound 261, 5-cyano-N,N-dimethyl-4-[(4-methyl-1H-indol-5-yl)amino]thieno[2,3-b]pyridine-2-carboxamide], the IC50 was 222 nM. `COCCNC(=O)c1cc2c(Nc3ccc4[nH]ccc4c3C)c(C#N)cnc2s1` [Compound 262, 5-cyano-N-(2-methoxyethyl)-4-[(4-methyl-1H-indol-5-yl)amino]thieno[2,3-b]pyridine-2-carboxamide] was tested, and the IC50 was 92 nM. With `Cc1c(Nc2c(C#N)cnc3sc(C(=O)Nc4cccnc4)cc23)ccc2[nH]ccc12` [Compound 263, 5-cyano-4-[(4-methyl-1H-indol-5-yl)amino]-N-pyridin-3-ylthieno[2,3-b]pyridine-2-carboxamide] the IC50 was 71 nM. Molecule `N#Cc1cnc2sc(C(=O)N3CCCC3)cc2c1Nc1cccc2[nH]ccc12` [Compound 264, 4-(1H-indol-4-ylamino)-2-(pyrrolidin-1-ylcarbonyl)thieno[2,3-b]pyridine-5-carbonitrile] has an IC50 of 669 nM. In the case of `Cc1c(Nc2c(C#N)cnc3sc(C(=O)N4CCNCC4)cc23)ccc2[nH]ccc12` [Compound 265, 4-[(4-methyl-1H-indol-5-yl)amino]-2-(piperazin-1-ylcarbonyl)thieno[2,3-b]pyridine-5-carbonitrile], the IC50 is reported as 232 nM. `Cc1c(Nc2c(C#N)cnc3sc(C(=O)NC4CCNCC4)cc23)ccc2[nH]ccc12` [Compound 266, 5-cyano-4-[(4-methyl-1H-indol-5-yl)amino]-N-piperidin-4-ylthieno[2,3-b]pyridine-2-carboxamide] showed an IC50 of 44 nM. `N#Cc1cnc2sc(CN3CCc4ccccc4C3)cc2c1Nc1ccc2[nH]ccc2c1` [Compound 268, 2-(3,4-dihydroisoquinolin-2(1H)-ylmethyl)-4-(1H-indol-5-ylamino)thieno[2,3-b]pyridine-5-carbonitrile] gave an IC50 of 1250 nM. `N#Cc1cnc2sc(CN3CCN(c4ccccc4)CC3)cc2c1Nc1ccc2[nH]ccc2c1` [Compound 269, 4-(1H-indol-5-ylamino)-2-[(4-phenylpiperazin-1-yl)methyl]thieno[2,3-b]pyridine-5-carbonitrile] showed an IC50 of 4030 nM. For `C=C/C=C/c1cc2c(Nc3ccc4[nH]ccc4c3)c(C#N)cnc2s1` [Compound 270, 2-[(1E)-buta-1,3-dien-1-yl]-4-(1H-indol-5-ylamino)thieno[2,3-b]pyridine-5-carbonitrile], the IC50 was 201 nM. Work on `Cc1c(Nc2c(C#N)cnc3sc(/C=C/CCN4CCN(C)CC4)cc23)ccc2[nH]ccc12` [Compound 272, 4-[(4-methyl-1H-indol-5-yl)amino]-2-[(1E)-4-(4-methylpiperazin-1-yl)but-1-en-1-yl]thieno[2,3-b]pyridine-5-carbonitrile] yielded an IC50 of 45 nM. `Cc1c(Nc2c(C#N)cnc3sc(/C=C/CN4CCOCC4)cc23)ccc2[nH]ccc12` [Compound 275, 4-[(4-methyl-1H-indol-5-yl)amino]-2-[(1E)-3-morpholin-4-ylprop-1-en-1-yl]thieno[2,3-b]pyridine-5-carbonitrile] gave an IC50 of 56 nM.
